Measurements: patent US20020137929A1, “1 - (3-heterocyclylphenyl) isothiourea, -isourea, -guanidine and -amidine herbicidal agents” (Intellectual Property Department, BASF Aktiengesellschaft, priority 1998, published 2002)

Experiments:
[1] = system: ABUTH (Velvetleaf); experiment: Postemergence herbicidal evaluation; assay type: in vivo, Abutilon theophrasti
Procedure, shortened: (§1)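 ~2-wk seedlings; postemergence spray, 40 psi; vehicle 1:1 acetone:water + 0.5% Tween 20; rate ≈0.0156–0.500 kg/ha; greenhouse hold; scored 4–5 wk after treatment, 0–9 scale vs control; repeat tests averaged.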

[2] = system: AMBEL (Ragweed, Common); experiment: Postemergence herbicidal evaluation; assay type: in vivo, Ambrosia artemisifolia
Procedure, shortened: as §1

[3] = system: CHEAL (Lambsquarters, Common); experiment: Postemergence herbicidal evaluation; assay type: in vivo, Chenopodium album
Procedure, shortened: as §1

[4] = system: ECHCG (Barnyardgrass); experiment: Postemergence herbicidal evaluation; assay type: in vivo, Echinochloa crus-galli
Procedure, shortened: as §1

[5] = system: GLXMAW (Soybean, Williams); experiment: Postemergence herbicidal evaluation; assay type: in vivo, Glycine max, (L.) Merr. cv Williams
Procedure, shortened: as §1

[6] = system: ORYSAT (Rice, Tebonnet); experiment: Postemergence herbicidal evaluation; assay type: in vivo, Oryza sativa, (L.) Tebonnet
Procedure, shortened: as §1

[7] = system: ZEAMX (Corn, Field); experiment: Postemergence herbicidal evaluation; assay type: in vivo, Zea mays
Procedure, shortened: as §1

[8] = system: AMBEL (Ragweed, Common); experiment: Preemergence herbicidal evaluation; assay type: in vivo, Ambrosia artemisifolia; settings: rated 4-5 weeks after treatment
Procedure, shortened: (§2)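 Sown cups got a single aqueous acetone spray of test compound (roughly 0.0156–0.500 kg/ha) before seedlings emerged. Evaluation, 4–5 weeks on, used a 0–9 visual scale covering plant stand, vigor, size, malformation, chlorosis and general appearance compared with controls.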

[9] = system: CASOB (Sicklepod); experiment: Preemergence herbicidal evaluation; assay type: in vivo, Cassia obtusifolia; settings: rated 4-5 weeks after treatment
Procedure, shortened: as §2

[10] = system: CHEAL (Lambsquarters, Common); experiment: Preemergence herbicidal evaluation; assay type: in vivo, Chenopodium album; settings: rated 4-5 weeks after treatment
Procedure, shortened: as §2

[11] = system: GALAP (Galium); experiment: Preemergence herbicidal evaluation; assay type: in vivo, Galium aparine; settings: rated 4-5 weeks after treatment
Procedure, shortened: as §2

[12] = system: CYPSE (Flatsedge); experiment: Preemergence weed control under flooded paddy conditions; assay type: in vivo, Cyperus serotinus; settings: rated 3-4 weeks after treatment
Procedure, shortened: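 Seeds or propagules sown in top 0.5 cm of silt loam soil, flooded 1.5 to 3 cm above surface throughout. Compound in 50/50 v/v aqueous/acetone pipetted into flood water at about 0.0313 to 0.500 kg/ha. Visual 0-9 rating versus control after three to four weeks in greenhouse.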

[13] = system: CYPIR (Rice Flatsedge); experiment: Postemergence weed control under flooded paddy conditions; assay type: in vivo, Cyperus iria; settings: postemergence weeds, 3-4 weeks after treatment
Procedure, shortened: (§3)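 Herbicidal effect is judged by eye on a 0–9 scale versus control, 3–4 weeks after dosing. Dosing is into flood water kept 1.5–3 cm over the soil, at about 0.0313–0.500 kg/ha in aqueous/acetone 50/50 v/v, on 3–5 cm weeds and 1.5–2.5-leaf rice seedlings.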

[14] = system: CYPSE (Flatsedge); experiment: as above; assay type: in vivo, Cyperus serotinus; settings: postemergence weeds, 3-4 weeks after treatment
Procedure, shortened: as §3

CCOC(=O)CN1C(=O)CSC1=Nc1cc(N2C(=O)C3=C(CCCC3)C2=O)c(F)cc1Cl [Compound 47, Ethyl 2-{[2-chloro-5-(1-cyclohexene-1,2-dicarboximido)-4-fluorophenyl]imino}-4-oxo-3-thiazolidineacetate]
Postemergence herbicidal rating ABUTH ([1]; Rate 0.0156 kg/ha): 9.0 | Postemergence herbicidal rating ABUTH ([1]; Rate 0.0313 kg/ha): 9.0 | Postemergence herbicidal rating ABUTH ([1]; Rate 0.0625 kg/ha): 9.0 | Postemergence herbicidal rating AMBEL ([2]; Rate 0.0156 kg/ha): 3.0 | Postemergence herbicidal rating AMBEL ([2]; Rate 0.0313 kg/ha): 9.0 | Postemergence herbicidal rating AMBEL ([2]; Rate 0.0625 kg/ha): 9.0 | Postemergence herbicidal rating CHEAL ([3]; Rate 0.0156 kg/ha): 3.0 | Postemergence herbicidal rating CHEAL ([3]; Rate 0.0313 kg/ha): 4.0 | Postemergence herbicidal rating ECHCG ([4]; Rate 0.0156 kg/ha): 0.0 | Postemergence herbicidal rating ECHCG ([4]; Rate 0.0313 kg/ha): 0.0 | Postemergence herbicidal rating ECHCG ([4]; Rate 0.0625 kg/ha): 0.0 | Postemergence herbicidal rating GLXMAW ([5]; Rate 0.0156 kg/ha): 5.5 | Postemergence herbicidal rating GLXMAW ([5]; Rate 0.0313 kg/ha): 7.0 | Postemergence herbicidal rating GLXMAW ([5]; Rate 0.0625 kg/ha): 7.5 | Postemergence herbicidal rating ORYSAT ([6]; Rate 0.0156 kg/ha): 0.5 | Postemergence herbicidal rating ORYSAT ([6]; Rate 0.0313 kg/ha): 1.5 | Postemergence herbicidal rating ORYSAT ([6]; Rate 0.0625 kg/ha): 3.0 | Postemergence herbicidal rating ZEAMX ([7]; Rate 0.0156 kg/ha): 5.0 | Postemergence herbicidal rating ZEAMX ([7]; Rate 0.0313 kg/ha): 7.0 | Postemergence herbicidal rating ZEAMX ([7]; Rate 0.0625 kg/ha): 7.5 | Preemergence herbicidal rating AMBEL ([8]; rate 0.0156 kg/ha): 0.0 | Preemergence herbicidal rating AMBEL ([8]; rate 0.0313 kg/ha): 0.0 | Preemergence herbicidal rating AMBEL ([8]; rate 0.0625 kg/ha): 0.0 | Preemergence herbicidal rating AMBEL ([8]; rate 0.1250 kg/ha): 0.0 | Preemergence herbicidal rating AMBEL ([8]; rate 0.2500 kg/ha): 0.0 | Preemergence herbicidal rating CASOB ([9]; rate 0.0156 kg/ha): 0.0 | Preemergence herbicidal rating CASOB ([9]; rate 0.0313 kg/ha): 0.0 | Preemergence herbicidal rating CASOB ([9]; rate 0.0625 kg/ha): 0.0 | Preemergence herbicidal rating CASOB ([9]; rate 0.1250 kg/ha): 0.0 | Preemergence herbicidal rating CASOB ([9]; rate 0.2500 kg/ha): 0.0 | Preemergence herbicidal rating CHEAL ([10]; rate 0.0156 kg/ha): 9.0 | Preemergence herbicidal rating CHEAL ([10]; rate 0.0313 kg/ha): 9.0 | Preemergence herbicidal rating CHEAL ([10]; rate 0.0625 kg/ha): 9.0 | Preemergence herbicidal rating CHEAL ([10]; rate 0.1250 kg/ha): 9.0 | Preemergence herbicidal rating CHEAL ([10]; rate 0.2500 kg/ha): 9.0 | Preemergence herbicidal rating GALAP ([11]; rate 0.0156 kg/ha): 0.0 | Preemergence herbicidal rating GALAP ([11]; rate 0.0313 kg/ha): 0.0 | Preemergence herbicidal rating GALAP ([11]; rate 0.0625 kg/ha): 0.0 | Preemergence herbicidal rating GALAP ([11]; rate 0.1250 kg/ha): 0.0 | Preemergence herbicidal rating GALAP ([11]; rate 0.2500 kg/ha): 9.0 | Herbicidal rating CYPSE ([12]; 0.0313 kg/ha): 0.0 | Herbicidal rating CYPSE ([12]; 0.0625 kg/ha): 0.0 | Herbicidal rating CYPSE ([12]; 0.1250 kg/ha): 0.0 | Herbicidal rating CYPSE ([12]; 0.2500 kg/ha): 0.0 | Herbicidal rating CYPIR ([13]; rate 0.0313 kg/ha): 0.0 | Herbicidal rating CYPIR ([13]; rate 0.0625 kg/ha): 0.0 | Herbicidal rating CYPIR ([13]; rate 0.1250 kg/ha): 4.0 | Herbicidal rating CYPIR ([13]; rate 0.2500 kg/ha): 6.0 | Herbicidal rating CYPSE ([14]; rate 0.0313 kg/ha): 0.0 | Herbicidal rating CYPSE ([14]; rate 0.0625 kg/ha): 0.0 | Herbicidal rating CYPSE ([14]; rate 0.1250 kg/ha): 0.0 | Herbicidal rating CYPSE ([14]; rate 0.2500 kg/ha): 0.0

CCOC(=O)CN1C(=O)C(CC(=O)OCc2ccccc2)OC1=Nc1cc(-n2c(=O)cc(C(F)(F)F)n(C)c2=O)c(F)cc1Cl (centres unmarked) [Compound 40, 2-{{2-Chloro-5-[3,6-dihydro-3-methyl-2,6-dioxo-4-(trifluoromethyl)-1(2H)-pyrimidinyl]-4-fluorophenyl}imino}-4-oxo-3,5-oxazolidinediacetic acid, 5-benzyl ethyl ester]
Postemergence herbicidal rating ABUTH ([1]; Rate 0.0158 kg/ha): 9.0 | Postemergence herbicidal rating ABUTH ([1]; Rate 0.0315 kg/ha): 9.0 | Postemergence herbicidal rating ABUTH ([1]; Rate 0.0630 kg/ha): 9.0 | Postemergence herbicidal rating AMBEL ([2]; Rate 0.0158 kg/ha): 9.0 | Postemergence herbicidal rating AMBEL ([2]; Rate 0.0315 kg/ha): 9.0 | Postemergence herbicidal rating AMBEL ([2]; Rate 0.0630 kg/ha): 9.0 | Postemergence herbicidal rating CHEAL ([3]; Rate 0.0158 kg/ha): 2.0 | Postemergence herbicidal rating CHEAL ([3]; Rate 0.0315 kg/ha): 7.0 | Postemergence herbicidal rating CHEAL ([3]; Rate 0.0630 kg/ha): 9.0 | Postemergence herbicidal rating ECHCG ([4]; Rate 0.0158 kg/ha): 1.0 | Postemergence herbicidal rating ECHCG ([4]; Rate 0.0315 kg/ha): 7.0 | Postemergence herbicidal rating ECHCG ([4]; Rate 0.0630 kg/ha): 9.0 | Postemergence herbicidal rating GLXMAW ([5]; Rate 0.0158 kg/ha): 7.0 | Postemergence herbicidal rating GLXMAW ([5]; Rate 0.0315 kg/ha): 9.0 | Postemergence herbicidal rating GLXMAW ([5]; Rate 0.0630 kg/ha): 8.0 | Postemergence herbicidal rating ORYSAT ([6]; Rate 0.0158 kg/ha): 2.5 | Postemergence herbicidal rating ORYSAT ([6]; Rate 0.0315 kg/ha): 3.0 | Postemergence herbicidal rating ORYSAT ([6]; Rate 0.0630 kg/ha): 3.0 | Postemergence herbicidal rating ZEAMX ([7]; Rate 0.0158 kg/ha): 7.0 | Postemergence herbicidal rating ZEAMX ([7]; Rate 0.0315 kg/ha): 7.5 | Postemergence herbicidal rating ZEAMX ([7]; Rate 0.0630 kg/ha): 8.5 | Preemergence herbicidal rating AMBEL ([8]; rate 0.0313 kg/ha): 0.0 | Preemergence herbicidal rating AMBEL ([8]; rate 0.0625 kg/ha): 2.0 | Preemergence herbicidal rating AMBEL ([8]; rate 0.1250 kg/ha): 6.0 | Preemergence herbicidal rating AMBEL ([8]; rate 0.2500 kg/ha): 6.0 | Preemergence herbicidal rating CASOB ([9]; rate 0.0313 kg/ha): 0.0 | Preemergence herbicidal rating CASOB ([9]; rate 0.0625 kg/ha): 0.0 | Preemergence herbicidal rating CASOB ([9]; rate 0.1250 kg/ha): 0.0 | Preemergence herbicidal rating CASOB ([9]; rate 0.2500 kg/ha): 1.0 | Preemergence herbicidal rating CHEAL ([10]; rate 0.0313 kg/ha): 9.0 | Preemergence herbicidal rating CHEAL ([10]; rate 0.0625 kg/ha): 9.0 | Preemergence herbicidal rating CHEAL ([10]; rate 0.1250 kg/ha): 9.0 | Preemergence herbicidal rating CHEAL ([10]; rate 0.2500 kg/ha): 9.0 | Preemergence herbicidal rating GALAP ([11]; rate 0.0313 kg/ha): 0.0 | Preemergence herbicidal rating GALAP ([11]; rate 0.0625 kg/ha): 0.0 | Preemergence herbicidal rating GALAP ([11]; rate 0.1250 kg/ha): 0.0 | Preemergence herbicidal rating GALAP ([11]; rate 0.2500 kg/ha): 0.0 | Herbicidal rating CYPSE ([12]; 0.0313 kg/ha): 0.0 | Herbicidal rating CYPSE ([12]; 0.0625 kg/ha): 0.0 | Herbicidal rating CYPSE ([12]; 0.1250 kg/ha): 0.0 | Herbicidal rating CYPSE ([12]; 0.2500 kg/ha): 6.0 | Herbicidal rating CYPIR ([13]; rate 0.0313 kg/ha): 0.0 | Herbicidal rating CYPIR ([13]; rate 0.0625 kg/ha): 0.0 | Herbicidal rating CYPIR ([13]; rate 0.1250 kg/ha): 0.0 | Herbicidal rating CYPIR ([13]; rate 0.2500 kg/ha): 0.0 | Herbicidal rating CYPSE ([14]; rate 0.0313 kg/ha): 0.0 | Herbicidal rating CYPSE ([14]; rate 0.0625 kg/ha): 0.0 | Herbicidal rating CYPSE ([14]; rate 0.1250 kg/ha): 0.0 | Herbicidal rating CYPSE ([14]; rate 0.2500 kg/ha): 6.0
